Reference: US12005125B2, “Nanoparticles for use in photodynamic therapies and methods of making, evaluating and using the same” (Mi2 Holdings LLC, priority 2020, dated 2024)

Tests used:
[1] = SOSG (singlet oxygen sensor green) fluorescent probe test: Type 2 ROS production by an illuminated photosensitizer (S-value); format: physicochemical; settings: for S (slope of SOSG I/I0 vs time, Type 2 ROS production): free PS illuminated at the wavelength of its maxima, [PS] E-6 (clinically relevant 1-2 uM); for S′ (S/Sstd): relative to methylene blue (MB) as standard; for S″ (S′−1): y coordinate of PS grid, MB = origin
Text: (§1) Discussed below are evaluations methods and system for evaluating a PS for Type ½ Production. The above describes the parameters that would best define an ideal practical PS. […] This can be semi-quantitatively analyzed using fluorescent molecular probes that scavenge Type ½ ROS. Two specific probes ideal for this are 9,10-anthracene bis(methylene) dimalonic acid (ADMA) and singlet oxygen sensor green (SOSG).
(§2) Anthracene and its derivatives are sensitive to both Type 1 and Type 2 ROS, while SOSG is specifically for Type 2 ROS studies.^9 By tracking the fluorescent changes of these probes over time, the Type ½ ROS and rates of production by a set of PSs can be directly compared in a semi-quantitative manner. In the work to follow, AMDA is the anthracene derivative utilized.
SOSG functions in a manner opposite to that of the anthracene probe; instead of a fluorescence loss, SOSG experiences a fluorescence enhancement when interacting with Type 2 ROS; Type 1 ROS has no effect. […] Therefore, the steeper the slope (S-value), the more Type 2 ROS being produced.
(§3) Combining the findings of the SOSG and ADMA tests, semi-quantitative comparisons and estimates about the performance of PSs in a given set may be extrapolated, when performed under identical conditions (equivalent [PS], [O2], flux, temp). This will aid in choosing a PS that maximizes PDT efficacy by showing it has a minimum of Type 1 ROS and maximum of Type 2 ROS production, while also producing at a sufficient rate to efficiently ablate tissue.
(§4) The exact method of study is as follows, using a factory default Horiba Duetta:
(§5) 3. Pulse the molecular probe for initial fluorescence
(§6) • a. Simple fluorescence scan • b. […] Ex/Em slits for both=⅔ nm, Integration for 1 second, 5 scans • e. The peak of highest counts is used 2. The PS is illuminated using the wavelength of its maxima for a set amount of time • a. Fixed wavelength fluorescent study mode; choose a time point desired • b. Ex/Em bandwidth=10/1 nm 4. Pulse the molecular probe for fluorescent changes 5. Repeat Steps 2 and 3 until the range time values desired is covered 6. Treat the data • a. Anthracene=Ln(I/I0) vs time; slope=k-value • b. SOSG=I/I0 vs time; slope=S-value
(§7) Using a PS as an assigned origin (standard by which all other PSs are compared to), any PS may be charted by comparing the k and S-values (k/kstd=k′, S/Sstd=S′, k″=1−k′, S″=S′−1) at clinically relevant concentrations (1-2 uM). By plotting the k″ and S″ values as x,y coordinates (respectively), the semi-quantitative comparison of PSs against each other may be directly visualized; the origin PS will have a position of 0,0. The x-axis will then stretch from −∞ to 1, and y-axis from −1 to ∞.

[2] = ADMA fluorescent probe test: rate of total Type 1 and 2 ROS production by an illuminated photosensitizer (k-value); format: physicochemical; settings: for k (rate constant of Type 1 and 2 ROS production, slope of Ln(I/I0) of ADMA vs time): free PS illuminated at the wavelength of its maxima, [PS] E-6 (clinically relevant 1-2 uM); for k′ (k/kstd): relative to methylene blue (MB) as standard; for k″ (1−k′): x coordinate of PS grid, MB = origin
Text: as §1, §2
ADMA decays according to first order rate law kinetics. As such, the rate of total Type 1 and 2 ROS may be studied by tracking its fluorescence loss over time as a natural log, yielding a linear plot whose slope is the rate constant of Type 1 and 2 ROS production (referred to as the k-value). The greater the rate constant, the more Type 1 and Type 2 ROS being produced, and thus PSs compared under identical conditions (equivalent [PS], [02], flux, temp) can be semi-quantitatively compared.
as §3, §4, §5, §6, §7

[3] = when covalently conjugated to 8PEGA; cited from earlier work
[4] = cited from earlier work

Compound | S (slope of SOSG I/I0 vs time, Type 2 ROS production) [1] | S′ (S/Sstd) [1] | S″ (S′−1) [1] | k (rate constant of Type 1 and 2 ROS production, slope of Ln(I/I0) of ADMA vs time) [2] | k′ (k/kstd) [2] | k″ (1−k′) [2] | k-values [3] | solubility in aqueous media ([4]; when covalently conjugated to 8PEGA) | solubility in water [4] | SOSG (E-2) ([1]; [PS] 3.91E−06) | k-vlaue (E-4) ([2]; [PS] 3.99E−06)
CN(C)c1ccc2nc3ccc(=[N+](C)C)cc-3sc2c1 [MB, Methylene blue] | 0.46 E−2 s^−1 | 1 | 0.00 | 6.13 E-4 s^−1 | 1 | 0.00 |  |  |  |  | 
CCNc1cc2[s+]c3cc(NCC)c(C)cc3nc2cc1C.[Cl-] [NMB, New Methylene Blue] | 0.96 E−2 s^−1 | 2.09 | 1.09 | 12.1 E-4 s^−1 | 1.97 | −0.97 |  |  |  |  | 
Chlorin e6 [Ce6] | 0.73 E−2 s^−1 | 1.59 | 0.59 | 0.94 E-4 s^−1 | 0.153 | 0.85 | improved | markedly enhanced |  |  | 
IRDye 700DX HHS Ester [IR700] | 2.04 E−2 s^−1 | 4.43 | 3.43 | 1.83 E-4 s^−1 | 0.299 | 0.70 |  |  | water soluble, having good solubility | 2.89 E-2 | 2.62 E-4
Verteporfin | 0.06 E−2 s^−1 | 0.13 | −0.87 | 0.16 E-4 s^−1 | 0.03 | 0.97 |  |  |  |  | 
